In PMC2630467 (Journal of medicinal chemistry, 2008):
“Also recorded” adds a separate entry of the source.

Key:
[1] = target: T1, CYP2C9 (Homo sapiens, UniProt P11712); test: EPR studies on binding modes with ferric 2C9; conditions: ferric 2C9 18.5 μM, substrate 1 mM, 20 K
[2] = target: T1, CYP2C9; test: UV difference spectroscopy of binding and substrate titrations with purified 2C9; conditions: UV difference spectra 350-500 nm
[3] = target: T1, CYP2C9; test: Reconstituted purified 2C9 system inhibition; type: biochemical

T1 sequence (P11712 whole entry): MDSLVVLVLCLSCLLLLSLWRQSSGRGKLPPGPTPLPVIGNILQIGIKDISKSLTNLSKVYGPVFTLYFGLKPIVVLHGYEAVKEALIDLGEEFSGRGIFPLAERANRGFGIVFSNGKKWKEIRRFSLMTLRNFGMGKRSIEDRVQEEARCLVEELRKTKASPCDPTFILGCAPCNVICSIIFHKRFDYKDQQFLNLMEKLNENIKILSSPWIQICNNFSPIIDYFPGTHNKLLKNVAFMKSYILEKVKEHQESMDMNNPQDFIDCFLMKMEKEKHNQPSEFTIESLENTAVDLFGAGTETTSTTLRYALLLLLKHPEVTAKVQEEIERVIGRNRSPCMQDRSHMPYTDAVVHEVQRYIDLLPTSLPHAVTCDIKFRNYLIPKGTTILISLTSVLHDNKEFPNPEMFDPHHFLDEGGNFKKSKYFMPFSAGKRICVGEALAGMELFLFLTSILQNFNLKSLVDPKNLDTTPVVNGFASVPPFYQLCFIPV

SMILES | Binding Type EPR [1] | Binding Type UV [2] | Ki [3]
O=C(Nc1ccc2ccccc2c1)c1cc(-c2ccncc2)nc2ccccc12 [Compound 7, N-(naphthalen-2-yl)-2-(pyridin-4-yl)quinoline-4-carboxamide] | low-spin shift; also recorded: pure Type II | – | –
O=C(Nc1ccccc1)c1cc(-c2ccncc2)nc2ccccc12 [Compound 13, N-phenyl-2-(pyridin-4-yl)quinoline-4-carboxamide] | – | clear Type II binding spectra; also recorded: typical Type II binding spectra | 79.8 nM
O=C(Nc1ccc2ccccc2c1)c1cc(-c2ccccn2)nc2ccccc12 [Compound 9, N-(naphthalen-2-yl)-2-(pyridin-2-yl)quinoline-4-carboxamide] | Type I | – | –
O=C(c1cc(-c2ccncc2)nc2ccccc12)N1CCCCC1 [Compound 1, Piperidin-1-yl(2-(pyridin-4-yl)quinolin-4-yl)methanone] | Type II | typical Type II binding spectra | –
Cc1cc(C)c2nc(-c3ccccn3)cc(C(=O)Nc3ccc4ccccc4c3)c2c1 [Compound 18, 6,8-dimethyl-N-(naphthalen-2-yl)-2-(pyridin-2-yl)quinoline-4-carboxamide] | Type I | – | –
O=C(Nc1ccc2ccccc2c1)c1cc(-c2cccnc2)nc2ccccc12 [Compound 8, N-(naphthalen-2-yl)-2-(pyridin-3-yl)quinoline-4-carboxamide] | Type I | – | –
O=C(Nc1ccccc1)c1cc(-c2cccnc2)nc2ccccc12 [Compound 14, N-phenyl-2-(pyridin-3-yl)quinoline-4-carboxamide] | – | mixed Type II and Type I binding modes | –
Cc1cc(C)c2nc(-c3cccnc3)cc(C(=O)Nc3ccc4ccccc4c3)c2c1 [Compound 17, 6,8-dimethyl-N-(naphthalen-2-yl)-2-(pyridin-3-yl)quinoline-4-carboxamide] | Type I | – | –
O=C(Nc1ccccc1)c1cc(-c2ccccn2)nc2ccccc12 [Compound 15, N-phenyl-2-(pyridin-2-yl)quinoline-4-carboxamide] | – | does not give a either a Type I or Type II binding spectra | –
O=C(Nc1ccc2ccccc2c1)c1cc(-c2ccncc2)nc2ccc(Cl)cc12 [Compound 19, 6-chloro-N-(naphthalen-2-yl)-2-(pyridin-4-yl)quinoline-4-carboxamide] | low-spin shift; also recorded: mixed mode; also recorded: Type II/Type I | – | –
O=C(c1cc(-c2cccnc2)nc2ccccc12)N1CCCCC1 [Compound 2, Piperidin-1-yl(2-(pyridin-3-yl)quinolin-4-yl)methanone] | Type I | mixed Type I and Type II binding | –
